Measurements as given in PubChem BioAssay (NCI).
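How tested: cells in 96-well plates exposed to compound for 48 hours at five concentrations. TGI marks complete inhibition of growth.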

Columns and labels:
Test in all cases: NCI-60 cell line screen, 48 h
[1] = test system: 786-0 renal
[2] = test system: A498 renal
[3] = test system: A549 NSCLC
[4] = test system: ACHN renal
[5] = test system: BT-549 breast
[6] = test system: CAKI-1 renal
[7] = test system: CCRF-CEM leukemia
[8] = test system: COLO 205 colon
[9] = test system: DU-145 prostate
[10] = test system: EKVX NSCLC
[11] = test system: HCC-2998 colon
[12] = test system: HCT-116 colon
[13] = test system: HCT-15 colon
[14] = test system: HL-60(TB) leukemia
[15] = test system: HOP-62 NSCLC
[16] = test system: HS 578T breast
[17] = test system: HT29 colon
[18] = test system: K-562 leukemia
[19] = test system: KM12 colon
[20] = test system: LOX IMVI melanoma
[21] = test system: M14 melanoma
[22] = test system: MALME-3M melanoma
[23] = test system: MCF7 breast
[24] = test system: MDA-MB-231 breast
[25] = test system: MDA-MB-435
[26] = test system: MDA-N
[27] = test system: MOLT-4 leukemia
[28] = test system: NCI-H226 lung
[29] = test system: NCI-H23 lung
[30] = test system: NCI-H460 lung
[31] = test system: NCI-H522 lung
[32] = test system: OVCAR-3 ovarian
[33] = test system: OVCAR-4 ovarian
[34] = test system: OVCAR-5 ovarian
[35] = test system: OVCAR-8 ovarian
[36] = test system: PC-3 prostate
[37] = test system: RPMI-8226 leukemia
[38] = test system: SF-268 CNS
[39] = test system: SF-539 CNS
[40] = test system: SK-MEL-2 melanoma
[41] = test system: SK-MEL-28 melanoma
[42] = test system: SK-MEL-5 melanoma
[43] = test system: SK-OV-3 ovarian
[44] = test system: SN12C renal
[45] = test system: SNB-19 CNS
[46] = test system: SNB-75 CNS
[47] = test system: SR leukemia
[48] = test system: SW-620 colon
[49] = test system: T-47D breast
[50] = test system: TK-10 renal
[51] = test system: U251 CNS
[52] = test system: UACC-257 melanoma
[53] = test system: UACC-62 melanoma
[54] = test system: HOP-92 NSCLC
[55] = test system: IGROV1 ovarian
[56] = test system: NCI/ADR-RES ovarian
[57] = test system: RXF 393 renal
[58] = test system: SF-295 CNS
[59] = test system: UO-31 renal

Cc1ccc(NC(=O)/C=C/c2ccccc2)c(C)c1 showed a TGI [1] of over 100 µM, a TGI [2] of over 100 µM and a TGI [3] of over 100 µM. For the same compound, the TGI [4] was over 100 µM, the TGI [5] was over 100 µM and the TGI [6] was over 100 µM. It also gave a TGI [7] of over 100 µM, a TGI [8] of over 100 µM and a TGI [9] of over 100 µM. It also gave a TGI [10] of over 100 µM, a TGI [11] of over 100 µM and a TGI [12] of over 100 µM. It also gave a TGI [13] of over 100 µM, a TGI [14] of over 100 µM and a TGI [15] of over 100 µM. It also gave a TGI [16] of 74.4 µM, a TGI [17] of over 100 µM and a TGI [18] of over 100 µM. It also gave a TGI [19] of over 100 µM, a TGI [20] of over 100 µM and a TGI [21] of over 100 µM. It also gave a TGI [22] of over 100 µM, a TGI [23] of over 100 µM and a TGI [24] of over 100 µM. It also gave a TGI [25] of over 100 µM, a TGI [26] of over 100 µM and a TGI [27] of over 100 µM. The TGI [28] was 92 µM, the TGI [29] was over 100 µM and the TGI [30] was over 100 µM. It also gave a TGI [31] of over 100 µM, a TGI [32] of over 100 µM and a TGI [33] of over 100 µM. It also gave a TGI [34] of over 100 µM, a TGI [35] of over 100 µM and a TGI [36] of over 100 µM. For the same compound, the TGI [37] was over 100 µM, the TGI [38] was over 100 µM and the TGI [39] was over 100 µM. It also gave a TGI [40] of over 100 µM, a TGI [41] of over 100 µM and a TGI [42] of over 100 µM. For the same compound, the TGI [43] was over 100 µM, the TGI [44] was over 100 µM and the TGI [45] was over 100 µM. It also gave a TGI [46] of over 100 µM, a TGI [47] of over 100 µM and a TGI [48] of over 100 µM. It also gave a TGI [49] of over 100 µM, a TGI [50] of over 100 µM and a TGI [51] of over 100 µM. The TGI [52] was over 100 µM and the TGI [53] was over 100 µM.

c1cc2ccc3cc4ncccc4c4ccc(c1)c2c34 was tested, and the TGI [1] was over 100 µM, the TGI [3] was over 100 µM and the TGI [4] was 31.6 µM. For the same compound, the TGI [6] was over 100 µM, the TGI [7] was over 100 µM and the TGI [8] was over 100 µM. It also gave a TGI [9] of over 100 µM, a TGI [10] of over 100 µM and a TGI [11] of over 100 µM. The TGI [12] was over 100 µM, the TGI [13] was over 100 µM and the TGI [14] was over 100 µM. The TGI [15] was over 100 µM, the TGI [54] was over 100 µM and the TGI [16] was over 100 µM. For the same compound, the TGI [17] was over 100 µM, the TGI [55] was 25 µM and the TGI [18] was over 100 µM. It also gave a TGI [19] of over 100 µM, a TGI [20] of over 100 µM and a TGI [21] of over 100 µM. For the same compound, the TGI [22] was over 100 µM, the TGI [23] was over 100 µM and the TGI [24] was over 100 µM. It also gave a TGI [25] of over 100 µM, a TGI [26] of over 100 µM and a TGI [27] of over 100 µM. For the same compound, the TGI [28] was over 100 µM, the TGI [29] was over 100 µM and the TGI [30] was over 100 µM. For the same compound, the TGI [31] was over 100 µM, the TGI [56] was over 100 µM and the TGI [32] was over 100 µM. The TGI [34] was over 100 µM, the TGI [35] was 67.4 µM and the TGI [36] was over 100 µM. The TGI [37] was 88.3 µM, the TGI [57] was over 100 µM and the TGI [38] was over 100 µM. The TGI [58] was over 100 µM, the TGI [39] was over 100 µM and the TGI [40] was 77 µM. The TGI [41] was over 100 µM, the TGI [43] was over 100 µM and the TGI [44] was over 100 µM. The TGI [45] was over 100 µM, the TGI [46] was over 100 µM and the TGI [47] was over 100 µM. It also gave a TGI [48] of over 100 µM, a TGI [49] of over 100 µM and a TGI [50] of over 100 µM. It also gave a TGI [51] of over 100 µM, a TGI [52] of over 100 µM and a TGI [53] of over 100 µM. The TGI [59] was 40.2 µM.
